Measurements reported in PubChem BioAssay (NCI).
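Each compound was tested at five concentrations against cells in 96-well plates for 48 hours. GI50: concentration for 50% inhibition of growth. TGI marks complete inhibition of growth.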

What was measured:
Assay in all cases: inhibition of tumour cell growth, NCI panel, 48 h
[1] = system: HT29 colon
[2] = system: K-562 leukemia
[3] = system: LOX IMVI melanoma
[4] = system: M14 melanoma
[5] = system: NCI-H226 lung
[6] = system: SF-295 CNS
[7] = system: SK-MEL-5 melanoma
[8] = system: SN12C renal
[9] = system: SNB-19 CNS
[10] = system: SW-620 colon

Row | SMILES | GI50 [1] [nM] | TGI [1] [µM] | GI50 [2] [nM] | TGI [2] [µM] | GI50 [3] [nM] | TGI [3] [µM] | GI50 [4] [nM] | TGI [4] [µM] | GI50 [5] [µM] | TGI [5] [µM] | GI50 [6] [nM] | TGI [6] [µM] | GI50 [7] [nM] | TGI [7] [µM] | GI50 [8] [nM] | TGI [8] [µM] | GI50 [9] [µM] | TGI [9] [µM] | GI50 [10] [nM] | TGI [10] [µM]
1 | CC/C(Cc1ccccc1)=C(/c1ccc(O)cc1)c1ccc(OCCN2CCCC2)cc1 | 1720 | 3.78 | 1200 | 3.41 | 1620 | 3.05 | 1800 | 3.64 | 1.77 | 3.58 | 1810 | 3.46 | 1700 | 3.08 | 1880 | 3.88 | 1.97 | 3.93 | 1840 | 3.63
2 | COc1cc(Nc2ncnc(Nc3ccc4c(n3)NC(=O)C(C)(C)O4)n2)cc(OC)c1OC | 803 | > 100 | 3550 | > 100 | 633 | > 100 | 5150 | > 100 | 0.297 | > 100 | 754 | > 100 | > 100000 | > 100 | 411 | > 100 | 9.78 | > 100 | 2730 | > 100
3 | Cc1c(C)c2c(c(C)c1OCC(=O)O)CC[C@@](C)(CCC[C@@H](C)CCC[C@@H](C)CCCC(C)C)O2 | 58300 | 140 | 62500 | 287 | 78700 | 216 | 41100 | 114 | 89 | 244 | 60100 | 146 | 58000 | 122 | 66700 | 176 | 95.8 | 196 | 81900 | 218
4 | CCC(=O)C(C(=O)CC)c1c(OC(=O)c2ccccc2)ccc(O)c1C(=O)OC | – | > 100 | – | > 100 | – | > 100 | – | > 100 | – | > 100 | – | > 100 | – | > 100 | – | > 100 | – | > 100 | – | > 100
5 | C=C(CO)CC(/C=C(\C)CC/C=C(\C)CCl)OC(C)=O (stereo not given) | – | > 100 | – | > 100 | – | > 100 | – | > 100 | – | > 100 | – | > 100 | – | > 100 | – | > 100 | – | > 100 | – | > 100
6 | O/N=C\C(=Nc1ccc(Cc2ccc(N=C(/C=N\O)NO)cc2)cc1)NO | – | > 100 | – | > 100 | – | > 100 | – | > 100 | – | > 100 | – | > 100 | – | > 100 | – | > 100 | – | > 100 | – | > 100
7 | COc1cccc2nc3c(C(=O)NCCN(C)C)cccc3nc12 | – | 32 | – | 25.2 | – | 14.1 | – | 36.3 | – | 20.2 | – | 36.8 | – | 36.8 | – | > 72.3 | – | > 91.8 | – | > 57.7
8 | CCOc1ccc(C(C)=O)cc1NC(=O)c1cccc(-c2nnn(CC)n2)c1 | 325 | > 100 | 454 | > 100 | 590 | 70.2 | 396 | > 100 | 11.2 | > 100 | 306 | 5.74 | 465 | 16.5 | 5800 | > 100 | 1.29 | 76.6 | 492 | > 100
9 | Nc1ccc(-c2ccc3ncc4ccc(=O)n(-c5cccc(C(F)(F)F)c5)c4c3c2)cn1 | 115 | 12 | < 14 | > 43.2 | < 10 | 0.481 | < 10 | 0.266 | < 0.01 | 4.7 | < 10 | 1.19 | < 10 | 0.0767 | < 13.1 | > 52.2 | < 0.013 | 52.3 | < 12.5 | 13.3
10 | CC1=C(C#N)C(/C=C(\Cl)c2ccc(F)cc2)C(C#N)=C(C)N1 | > 100000 | > 100 | > 100000 | > 100 | > 100000 | > 100 | > 100000 | > 100 | > 100 | > 100 | 53700 | > 100 | > 100000 | > 100 | > 100000 | > 100 | > 100 | > 100 | > 100000 | > 100
11 | Cc1ccc(O)c(NC2=C(Cl)C(=O)N(Cc3ccccc3)C2=O)c1 | 33300 | > 100 | 12400 | 59.6 | 20300 | 45.7 | 22500 | 70.6 | 15 | 37.3 | 26200 | 71.2 | 21100 | 40.7 | 14900 | 32.7 | 46 | > 100 | 32500 | > 100
12 | COc1cc2c3c(c1OC)C(=O)C=C3N(S(=O)(=O)c1ccc(C)cc1)CC2 | – | > 100 | – | > 100 | – | > 100 | – | > 100 | – | > 100 | – | > 100 | – | > 100 | – | > 100 | – | > 100 | – | > 100
13 | Cc1ccc(C2C(Cl)C(=O)N2NC(=O)c2ccc(N)cc2)cc1 (stereo not given) | – | 39.9 | – | 61.2 | – | 24.4 | – | 36.6 | – | 65.4 | – | 47.8 | – | 29.7 | – | 52.2 | – | 33.5 | – | 41.3
14 | CCC[CH2][Sn]([CH2]CCC)([O]C(=O)c1cccc(F)c1F)[O]C(=O)c1cccc(F)c1F | 1620 | 2.99 | 207 | 1.08 | 519 | 1.74 | 1400 | 2.77 | 1.25 | 2.52 | 1520 | 2.85 | 1520 | 2.87 | 1190 | 2.44 | 1.48 | 2.8 | 472 | 1.67
15 | COc1ccc2[nH]c(C(=O)OCc3ccc4cccc(O)c4n3)cc2c1 | 775 | 2.77 | 283 | 2.66 | 779 | 2.14 | 564 | 2.04 | 1.4 | 3.14 | 4980 | 18.1 | 1760 | 3.18 | 1180 | 2.54 | 2.83 | 11.2 | 1200 | 3.15
16 | COc1ccc2c(c1)O/C(=C\c1cccc(OCC(=O)Nc3nc(C)c(C)s3)c1)C2=O | 2730 | > 21 | 2650 | – | 189 | 0.351 | 175 | 0.368 | > 53 | > 100 | 28900 | > 100 | 2000 | > 100 | 2000 | > 100 | 27.5 | > 100 | 2860 | > 26.8
17 | Cc1cn2c(/C=N/N=C(N)N)c(-c3ccncc3)nc2s1 | 20100 | 46.8 | 15400 | 34 | 14900 | 28.1 | 16700 | 30.3 | 21.8 | 40.5 | 14300 | 29.2 | 19800 | 34.6 | 32700 | 69.7 | 16.4 | 31.3 | 18900 | 33.8
18 | COc1ccc(-c2nsc3c2NC(=O)CC3c2cccc(Cl)c2)cc1 (stereo not given) | 377 | 4.91 | 399 | > 100 | 5570 | > 100 | 1460 | > 100 | 10.8 | > 100 | 1990 | 13.5 | 1380 | 51.6 | > 22800 | > 100 | 5.44 | > 100 | 497 | > 100
19 | NC(CSC(c1ccccc1)(c1ccccc1)c1ccc(F)cc1)C(=O)O (stereo not given) | 803 | > 27.8 | 356 | – | 891 | > 100 | 402 | > 100 | 5.64 | > 76.3 | 346 | 13 | 382 | > 70.9 | 564 | > 70.7 | 0.458 | > 47.4 | 430 | > 100
20 | Nc1nc2c(ccc3ccccc32)s1 | > 100000 | > 100 | 91500 | > 100 | 78200 | > 100 | > 100000 | > 100 | > 100 | > 100 | > 100000 | > 100 | 72700 | > 100 | > 100000 | > 100 | > 100 | > 100 | > 100000 | > 100
21 | CC(=O)O[C@H](C[C@H](C(C)C)N(C)C(=O)[C@@H](NC(=O)[C@H]1CCCCN1C)C(C)C)c1cccc(C(=O)N[C@@H](Cc2ccccc2)C[C@H](C)C(=O)O)n1 | 24.2 | > 8.21 | 10.3 | > 25 | 25.5 | > 25 | 23.7 | – | 0.067 | 5.36 | 33.3 | > 5.29 | 15.5 | 0.36 | 44 | > 25 | 0.0343 | > 25 | < 22.2 | > 25
22 | Cc1cc2c(cc1CO)N1Cc3cc(C)c(CO)cc3N(C2)C1 | – | > 100 | – | > 100 | – | > 100 | – | > 100 | – | > 100 | – | > 100 | – | > 100 | – | > 100 | – | > 100 | – | > 100
23 | Nc1ccccc1C(=O)NC(=O)Nc1ccc(Oc2ncc(Br)cn2)c(Cl)c1 | – | 0.448 | 6.59 | 18 | – | 24.1 | – | 2.08 | – | 1.49 | – | 0.127 | 6.88 | 1.71 | – | 17.4 | – | 14.7 | 18.1 | 26.3
24 | COc1cc(C2c3cc4c(cc3[C@@H](N(C)c3ccc(N(C)C)cc3)C3COC(=O)C23)OCO4)cc(OC)c1O (stereo not given in full) | – | 2.62 | – | 30.6 | – | 16 | – | 14.5 | – | 0.625 | – | 0.325 | – | 13.7 | – | 18.1 | – | 42.6 | – | 21.8
25 | O=C(N/C(=C/c1cccc([N+](=O)[O-])c1)c1nc2ccc(Cl)cc2[nH]1)c1ccccc1 | – | 50.9 | – | 46.9 | – | 58.3 | – | > 100 | – | > 100 | – | > 100 | – | 12.7 | – | 87.4 | – | > 100 | – | 22.8
26 | Cc1cccc(Nc2cc(Cl)nc(SCC(=O)O)n2)c1C | – | > 100 | – | > 100 | – | > 100 | – | > 100 | – | > 100 | – | > 100 | – | > 100 | – | > 100 | – | > 100 | – | > 100
27 | COc1ccc(-c2nn3ncccc3c2-c2ccnc(Nc3ccc4c(c3)OCCO4)n2)cc1 | 4290 | > 23.8 | 9060 | > 25 | 3650 | > 25 | 8550 | > 25 | 5.51 | > 25 | > 17200 | > 25 | 6260 | > 25 | 6500 | > 25 | 16.3 | > 25 | 14400 | > 25
28 | CC(C)=C1CCC(CN2CCOCC2)C1=O (stereo not given) | – | 20.4 | – | 6.33 | – | 41.9 | – | 14.6 | – | 46.1 | – | > 100 | – | 30.7 | – | 16.7 | – | > 91.9 | – | 4.26
29 | S=C(CSc1ccccc1)Nc1cccc2ccccc12 | – | > 100 | – | > 100 | – | > 100 | – | > 100 | – | > 100 | – | 97.1 | – | 36.6 | – | > 100 | – | > 100 | – | > 100
30 | NCCOc1ncccc1/C=C1\c2ccccc2-c2ccc([N+](=O)[O-])cc21 | 89.8 | 1.04 | 33.7 | 1.23 | 24.3 | 0.163 | 43.9 | 0.322 | 0.11 | 0.366 | 24.6 | 0.161 | 101 | 0.253 | 28.4 | 0.178 | 0.0356 | 1.04 | 72.5 | 0.834
